How the values were obtained:
[1] = test system: P. falciparum intraerythrocytic parasites; test: Parasite intraerythrocytic growth (Giemsa smears); type: cell-based, Plasmodium falciparum; conditions: 1.4 μM
Method: A culture of erythrocytes freshly invaded by P. falciparum parasites was set up as previously described ([17]). Parasites were exposed to 1.4 μM EHop-016, and an untreated control was set up. Blood smears were taken at 20, 27, and 39 hpi, corresponding to late ring, trophozoite, and schizont stages, and then Giemsa stained and counted by optical microscopy in order to assess parasitemia. Pictures of the blood smears were taken with a Leica ICC50W camera. These experiments were performed in three biological replicates.

3D7 mature gametocytes = test: Gametocyte viability luminescence assay, mature gametocytes; type: cell-based, Plasmodium falciparum; conditions: Plasmodium falciparum, 3D7; stage V gametocytes, 72 h, luminescence; read-out: Mean IC50 ± SD, 3D7 mature gametocytes
Method: (§1) Chloroquine (CQ)-sensitive (D10, wild-type 3D7, or transgenic 3D7elo1-pfs16-CBG99) and CQ-resistant (W2) strains of P. falciparum were cultured as described previously ([58]), with slight modifications, as detailed in the supplemental material.
(§2) Asexual parasite growth was determined spectrophotometrically (optical density at 650 nm [OD650]) by measuring the activity of parasite lactate dehydrogenase (pLDH), according to a modified version of the method of Makler et al. ([59]). Gametocyte viability was measured by a luminescence method described previously ([60]). Details for the two methods are reported in the supplemental material. From either the OD or ALU (arbitrary luminescence units), the percentages of viability were calculated according to the formula 100 × (treated sample signal − blank signal)/(untreated control signal − blank signal). The blank for the pLDH assay was uninfected RBCs at the same hematocrit as that of parasitized RBCs, and the blank for the luminescence assay was parasites treated with a high dose of methylene blue. […]
(§3) strain (wild type or transgenic 3D7elo1-pfs16-CBG99 strain) was cultured in similar conditions, except for 10% naturally clotted Human O+ serum instead of AlbuMaxII and human type O-positive instead of A-positive RBCs. […]
(§4) in a standard gas mixture consisting of 1% O2, 5% CO2, 94% N2. Immature (stage II-III) and mature (stage V) gametocytes were obtained as described1. Briefly, cultures were diluted to 0.5% parasitemia at 5% HCT, and the medium was changed daily until parasites were stressed by nutrient deprivation. N-acetylglucosamine (NAG) (Sigma-Aldrich) 50 mM was then added to clear residual asexual parasites: Stage II and III gametocytes were obtained 4 days after NAG addition to the culture, while stage IV and V gametocytes were used 11 to 13 days from NAG addition. Gametocyte stages were routinely checked on Giemsa-stained smears. […]
(§5) Drug treated gametocyte cultures were transferred to 96-well black microplates and D-luciferin (1 mM in citrate buffer 0.1 M, pH 5.5) was added at a 1:1 volume ratio. Luminescence measurements were performed after 10 min with 500 ms integration time. Gametocytes treated

[2] = test system: P. falciparum asexual parasites, chloroquine-resistant W2 strain; test: Drug susceptibility assay (pLDH), asexual parasites, W2 strain; type: cell-based, Plasmodium falciparum; conditions: Plasmodium falciparum, W2, chloroquine-resistant W2 strain; read-out: IC50, W2 strain
Method: as §1, §2
The CQ-sensitive (D10) and the CQ-resistant (W2) strains were maintained at 5% hematocrit […]
supplemented with 1% AlbuMaxII (lipid-rich bovine serum albumin) (Invitrogen), 0.01% hypoxantine (Sigma), 20mM Hepes (EuroClone), 2 mM glutamine (EuroClone). […]
In vitro P. falciparum drug susceptibility assay […]
plate were transferred to a plate containing 100µl of Malstat reagent (0.11% [vol/vol] Triton- […]
dinucleotide [APAD] [Sigma-Aldrich], adjusted to pH 9 with 1 M HCl) and 25 µl of PES/NBT […]
pLDHassay. The plate was read at a wavelength of 650 nm using a microplate reader, Synergy4 […]
Uninfected RBC at the same HCT than parasites were used as blank. […]

3D7 immature gametocytes = test: Gametocyte viability luminescence assay, immature gametocytes; type: cell-based, Plasmodium falciparum; conditions: Plasmodium falciparum, 3D7, stage II-III gametocytes, 72 h, read-out: Mean IC50 ± SD, 3D7 immature gametocytes
Method: as §1, §2, §3, §4, §5

[3] = test system: human mammary epithelial cells; parameters: method as in PMID 25389450, PMID 25594952; conditions: at concentrations lower than 5 μM; cited from earlier work
Rac1 = Rac1 (Homo sapiens, UniProt P63000); test: G-LISA Rac1 activation assay in uninfected erythrocytes; type: cell-based; parameters: endogenous in cells; host or cells: erythrocytes from whole blood of 7 donors; conditions: 2.5 μM, 2 h
Method: Whole blood collected from 7 donors was washed in RPMI 1640 four times to remove plasma, platelets, and leukocytes. The number of erythrocytes was determined by using a cell counting chamber. Erythrocytes were incubated for 2 h at 37°C with or without 2.5 μM EHop-016 and then washed. In each sample, the Rac1 activation state was measured with the G-LISA Rac1 activation assay luminescence-based biochemical kit (Cytoskeleton). Luminescence intensity was assessed with a BioTek Synergy HT plate reader. These experiments were performed in three biological replicates.

CCn1c2ccccc2c2cc(Nc3ccnc(NCCCN4CCOCC4)n3)ccc21 [EHop-016]
parasitemia compared to untreated control ([1]; 20, 27 and 39 hpi): significant, time-dependent reduction in parasitemia
parasite developmental process ([1]; up to 39 hpi): complete block of the developmental process
IC50 (3D7 mature gametocytes): 4650 ± 520 nM
IC50 [2]: 322 ± 28.5 nM
IC50 (3D7 immature gametocytes): 740 ± 200 nM
viability of human mammary epithelial cells [3]: does not affect the viability
levels of active Rac1 in noninfected erythrocytes (Rac1): does not inhibit Rac1 in noninfected erythrocytes

From publication PMC8765435, “In Vitro Antimalarial Activity of Inhibitors of the Human GTPase Rac1” (Antimicrobial Agents and Chemotherapy, 2022)
